Measurements from PubChem BioAssay AID330 (DTP/NCI, 2004).
Several values for one entry are separate records, joined by “and”; a condition that tells them apart may be missing. Equal entries are not always repeated. Inconclusive results and toxic doses are left out. Rule for the calls: active = survival T/C of 150% or more; inactive = T/C below 125% in these data. Peptide text beside a SMILES is read from it.

System: P388 leukemia ip, CD2F1 mice, survival T/C
Assay: NCI In Vivo Anticancer Drug Screen. Data for tumor model P388 Leukemia (intraperitoneal) in CD2F1 (CDF1) mice
Conditions: endpoint: median survival time, higher = longer survival
In short: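 Mice carrying the transplanted tumor received test compound or vehicle. Survival was recorded in each group, and the value is the treated-group measurement divided by that of the vehicle-treated control group.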

[1] = dose: 12.5 mg/kg/injection, schedule: Q01DX005 (ip), vehicle: saline with Tween-80
[2] = dose: 50.0 mg/kg/injection, schedule: Q01DX005 (ip), vehicle: saline with Tween-80
[3] = dose: 60.0 mg/kg/injection, schedule: Q01DX005 (ip), vehicle: saline with Tween-80
[4] = dose: 120.0 mg/kg/injection, schedule: Q01DX005 (ip), vehicle: saline with Tween-80
[5] = dose: 240.0 mg/kg/injection, schedule: Q01DX005 (ip), vehicle: saline with Tween-80
[6] = dose: 100.0 mg/kg/injection, schedule: Q01DX009 (ip), vehicle: saline with Tween-80
[7] = dose: 200.0 mg/kg/injection, schedule: Q01DX009 (ip), vehicle: saline with Tween-80
[8] = dose: 50.0 mg/kg/injection, schedule: Q01DX009 (ip), vehicle: Klucel (hydroxypropylcellulose) (HPC)
[9] = dose: 100.0 mg/kg/injection, schedule: Q01DX009 (ip), vehicle: Klucel (hydroxypropylcellulose) (HPC)
[10] = dose: 200.0 mg/kg/injection, schedule: Q01DX009 (ip), vehicle: Klucel (hydroxypropylcellulose) (HPC)
[11] = dose: 50.0 mg/kg/injection, schedule: Q01DX009 (ip), vehicle: saline
[12] = dose: 100.0 mg/kg/injection, schedule: Q01DX009 (ip), vehicle: saline
[13] = dose: 200.0 mg/kg/injection, schedule: Q01DX009 (ip), vehicle: saline
[14] = dose: 100.0 mg/kg/injection, schedule: Q01DX005 (ip), vehicle: saline with Tween-80
[15] = dose: 200.0 mg/kg/injection, schedule: Q01DX005 (ip), vehicle: saline with Tween-80

Measured: T/C

CC(=O)[O][Hg][c]1cc(-c2ccc(N=Nc3c(S(=O)(=O)O)cc4cccc(N)c4c3O)cc2)ccc1N=Nc1c(S(=O)(=O)O)cc2cccc(N)c2c1O
inactive: dose: 3.13 mg/kg/injection, schedule: Q04DX003 (ip), vehicle: saline with Tween-80 90 % of control | dose: 6.25 mg/kg/injection, schedule: Q04DX003 (ip), vehicle: saline with Tween-80 95 % of control

CN(C)CCCNc1nc(NCCCN(C)C)c2nc(-c3ccccc3)c(-c3ccccc3)nc2n1
inactive: [1] 97 % of control | dose: 25.0 mg/kg/injection, schedule: Q01DX005 (ip), vehicle: saline with Tween-80 88 % of control | [2] 88 % of control

O=c1n(-c2ccccc2)c(=O)n2n1C1C=CC2C23C=CC12CCCC3 (stereo not drawn)
inactive: dose: 100.0 mg/kg/injection, schedule: Q04DX003 (ip), vehicle: Klucel (hydroxypropylcellulose) (HPC) 96 % of control | dose: 200.0 mg/kg/injection, schedule: Q04DX003 (ip), vehicle: Klucel (hydroxypropylcellulose) (HPC) 96 % of control | dose: 400.0 mg/kg/injection, schedule: Q04DX003 (ip), vehicle: Klucel (hydroxypropylcellulose) (HPC) 96 % of control

C1=NC2=C(CCc3ccccc32)C2=NCCN12
inactive: dose: 10.0 mg/kg/injection, schedule: Q04DX002 (ip), vehicle: saline with Tween-80 100 % of control | dose: 20.0 mg/kg/injection, schedule: Q04DX002 (ip), vehicle: saline with Tween-80 96 % of control | dose: 40.0 mg/kg/injection, schedule: Q04DX002 (ip), vehicle: saline with Tween-80 100 % of control

Cc1cccc(C)c1NC(=O)Nc1cccc(C(F)(F)F)c1
inactive: [3] 100 % of control | [4] 100 % of control | [5] 90 % of control

NC(=O)c1ccccc1OC(=O)Nc1ccc(F)cc1
inactive: dose: 15.0 mg/kg/injection, schedule: Q01DX005 (ip), vehicle: saline with Tween-80 101 % of control | dose: 30.0 mg/kg/injection, schedule: Q01DX005 (ip), vehicle: saline with Tween-80 97 % of control | [3] 99 % of control and 103 % of control | [4] 99 % of control

CCCCCCCCCCCCO[P+](=O)OCCCCCCCCCCCC
inactive: dose: 50.0 mg/kg/injection, schedule: Q01DX009 (ip), vehicle: saline sonified 110 % of control | dose: 66.0 mg/kg/injection, schedule: Q01DX009 (ip), vehicle: saline with Tween-80 109 % of control | dose: 100.0 mg/kg/injection, schedule: Q01DX009 (ip), vehicle: saline sonified 110 % of control | [6] 100 % of control and 95 % of control | dose: 100.0 mg/kg/injection, schedule: Q04DX003 (ip), vehicle: saline with Tween-80 95 % of control | dose: 150.0 mg/kg/injection, schedule: Q01DX009 (ip), vehicle: saline with Tween-80 100 % of control | [7] 90 % of control | dose: 200.0 mg/kg/injection, schedule: Q04DX003 (ip), vehicle: saline with Tween-80 91 % of control | dose: 400.0 mg/kg/injection, schedule: Q01DX009 (ip), vehicle: saline with Tween-80 90 % of control | dose: 400.0 mg/kg/injection, schedule: Q04DX003 (ip), vehicle: saline with Tween-80 95 % of control

COc1ccc(=NC(C)=O)c2c(O)c3c(=O)c4[nH]c5c(OC)ccc(=NC(C)=O)c5c(O)c4c(=O)c3[nH]c12
inactive: [8] 89 % of control | [9] 99 % of control | [10] 99 % of control

CCCC[Si](O)(CCCC)CCCC
inactive: [11] 100 % of control | [12] 102 % of control | [13] 100 % of control

CC(=O)CC(=O)C(F)(F)F.CC(=O)CC(=O)C(F)(F)F.CC(=O)CC(=O)C(F)(F)F.[Sm]
inactive: [8] 96 % of control | [9] 94 % of control | [10] 93 % of control | dose: 400.0 mg/kg/injection, schedule: Q01DX009 (ip), vehicle: Klucel (hydroxypropylcellulose) (HPC) 94 % of control

C=CCSc1ncnc2c1ncn2C1OC(CO)C(O)C1O (stereo not drawn)
inactive: dose: 100.0 mg/kg/injection, schedule: Q04DX003 (ip), vehicle: saline sonified 105 % of control | dose: 200.0 mg/kg/injection, schedule: Q04DX003 (ip), vehicle: saline sonified 115 % of control | dose: 400.0 mg/kg/injection, schedule: Q04DX003 (ip), vehicle: saline sonified 120 % of control

O=C(O)CN(CC(=O)O)Cc1cc2c(c(O)c1O)C(=O)c1ccccc1C2=O
inactive: dose: 6.25 mg/kg/injection, schedule: Q01DX009 (ip), vehicle: saline with Tween-80 97 % of control | dose: 12.5 mg/kg/injection, schedule: Q01DX009 (ip), vehicle: saline with Tween-80 101 % of control | dose: 25.0 mg/kg/injection, schedule: Q01DX009 (ip), vehicle: saline with Tween-80 93 % of control | [6] 100 % of control | [7] 100 % of control

CN(c1ccccc1)c1c(Cl)c(=O)oc2c1ccc1nc(-c3ccccc3)sc12
inactive: [2] 86 % of control | [14] 90 % of control | [15] 86 % of control

CC(C)=Cc1cc(-c2cc(C=C(C)C)on2)no1
inactive: dose: 60.0 mg/kg/injection, schedule: Q01DX005 (ip), vehicle: saline 100 % of control | dose: 120.0 mg/kg/injection, schedule: Q01DX005 (ip), vehicle: saline 104 % of control | dose: 240.0 mg/kg/injection, schedule: Q01DX005 (ip), vehicle: saline 100 % of control

CC1CN=C(c2cccc(NC(=O)NCCCCNC(=O)Nc3cccc(C4=NCC(C)N4)c3)c2)N1 (stereo not drawn)
inactive: dose: 6.25 mg/kg/injection, schedule: Q01DX005 (ip), vehicle: saline with Tween-80 100 % of control | [1] 104 % of control

CCOC(=O)/N=[N+](\[O-])c1ccc([N+](=O)[O-])cc1
inactive: dose: 100.0 mg/kg/injection, schedule: Q01DX001 (ip), vehicle: Klucel (hydroxypropylcellulose) (HPC) 95 % of control

CC(C)CC(NC(=O)OC(C)(C)C)C(=O)CBr (stereo not drawn)
inactive: dose: 12.5 mg/kg/injection, schedule: Q01DX001 (ip), vehicle: saline with Tween-80 105 % of control | dose: 25.0 mg/kg/injection, schedule: Q01DX001 (ip), vehicle: saline with Tween-80 105 % of control | dose: 50.0 mg/kg/injection, schedule: Q01DX001 (ip), vehicle: saline with Tween-80 96 % of control

Clc1cccc(C(Nc2nncs2)Nc2nncs2)c1Cl
inactive: [3] 89 % of control | [4] 100 % of control | [5] 96 % of control

COc1cc(COC(=O)Nc2ccccc2F)cc(OC)c1OC
inactive: [2] 93 % of control | [14] 101 % of control | [15] 92 % of control

CCOc1ccc2c(c1)/C(=C\C=C\C1CC(C)C3CC(OCC)CCC3N1CC)CC(C)N2CC (stereo not drawn)
inactive: dose: 1.25 mg/kg/injection, schedule: Q01DX009 (ip), vehicle: saline + alcohol 120 % of control

O=C(O)c1cc(Br)no1
inactive: [11] 95 % of control | [12] 90 % of control | [13] 89 % of control

COC(=O)CCCCCCCCCCCC1C=CCC1 (stereo not drawn)
inactive: dose: 100.0 mg/kg/injection, schedule: Q01DX001 (ip), vehicle: saline 105 % of control | dose: 200.0 mg/kg/injection, schedule: Q01DX001 (ip), vehicle: saline 100 % of control | dose: 400.0 mg/kg/injection, schedule: Q01DX001 (ip), vehicle: saline 104 % of control

NC(C(=O)O)C(CC(=O)O)c1ccc(O)cc1 (stereo not drawn)
inactive: dose: 50.0 mg/kg/injection, schedule: Q01DX007 (ip), vehicle: saline 100 % of control | dose: 100.0 mg/kg/injection, schedule: Q01DX007 (ip), vehicle: saline 100 % of control | dose: 200.0 mg/kg/injection, schedule: Q01DX007 (ip), vehicle: saline 101 % of control

CC(C)C(NC(=O)C(N)CCCCN)C(=O)O (stereo not drawn) (H-Lys-Val-OH; configuration not given here)
inactive: dose: 100.0 mg/kg/injection, schedule: Q04DX003 (ip), vehicle: saline 96 % of control | dose: 200.0 mg/kg/injection, schedule: Q04DX003 (ip), vehicle: saline 97 % of control | dose: 400.0 mg/kg/injection, schedule: Q04DX003 (ip), vehicle: saline 97 % of control

Cc1ncc(C(=O)O)c2c1OC(C)(C)OC2
inactive: [2] 104 % of control | [14] 100 % of control | [15] 98 % of control

C=CC(C)(C)C(O)C=C(C)C (stereo not drawn)
inactive: dose: 100.0 mg/kg/injection, schedule: Q04DX002 (ip), vehicle: saline with Tween-80 99 % of control | dose: 200.0 mg/kg/injection, schedule: Q04DX002 (ip), vehicle: saline with Tween-80 100 % of control | dose: 400.0 mg/kg/injection, schedule: Q04DX002 (ip), vehicle: saline with Tween-80 101 % of control
